Earlier results, collected in US10172811B2, “Topical antifungal composition for treating onychomycosis” (Polichem S.A., priority 2013, dated 2019).

Tests used:
onychomycosis [1] = conditions: topical nail formulation; 48 weeks daily treatment, 12-week follow up
onychomycosis [2] = conditions: oral

Structure (SMILES) | Complete cure (onychomycosis [1]) | Responders (onychomycosis [1]) [%] | Complete cure, proportion of patients (onychomycosis [2]) [%]
Cc1cc(C2CCCCC2)n(O)c(=O)c1 [ciclopirox] | about 13% | ~30 | –
CN(C/C=C/C#CC(C)(C)C)Cc1cccc2ccccc12 [terbinafine] | – | – | 38
